Laboratory results as given in the NIST ThermoML archive (doi:10.1021/je800579j).

Test: xn = mol fraction of the nth substance listed
Settings: Liquid, Pycnometric method

C1COCCO1 [1,4-dioxane] + Cc1ccccc1
mass density [kg/m3]
Settings | 288.15 K | 293.15 K | 298.15 K | 303.15 K | 308.15 K | 313.15 K | 318.15 K
x1 = 0.0688 | 881.09 | 876.32 | 871.54 | 866.76 | 861.99 | 857.21 | 852.43
x1 = 0.1373 | 890.67 | 885.84 | 881 | 876.16 | 871.33 | 866.49 | 861.65
x1 = 0.2112 | 901.34 | 896.45 | 891.55 | 886.65 | 881.75 | 876.85 | 871.95
x1 = 0.2858 | 912.47 | 907.51 | 902.55 | 897.58 | 892.62 | 887.66 | 882.7
x1 = 0.3552 | 923.15 | 918.13 | 913.11 | 908.08 | 903.06 | 898.04 | 893.02
x1 = 0.4361 | 936.02 | 930.92 | 925.82 | 920.72 | 915.63 | 910.54 | 905.45
x1 = 0.5064 | 947.57 | 942.41 | 937.25 | 932.09 | 926.93 | 921.77 | 916.61
x1 = 0.5819 | 960.38 | 955.15 | 949.92 | 944.69 | 939.46 | 934.23 | 929
x1 = 0.6506 | 972.39 | 967.1 | 961.8 | 956.5 | 951.21 | 945.92 | 940.63
x1 = 0.7212 | 985.11 | 979.74 | 974.37 | 969.01 | 963.65 | 958.29 | 952.93
x1 = 0.7903 | 997.93 | 992.49 | 987.06 | 981.63 | 976.2 | 970.77 | 965.34
x1 = 0.864 | 1012.02 | 1006.51 | 1001 | 995.5 | 989.99 | 984.49 | 978.99
x1 = 0.9336 | 1025.74 | 1020.16 | 1014.58 | 1009.01 | 1003.44 | 997.87 | 992.3
x1 = 1 | 1039.23 | 1033.59 | 1027.95 | 1022.32 | 1016.68 | 1011.05 | 1005.42

C1COCCO1 [1,4-dioxane] + c1ccccc1
mass density [kg/m3]
Settings | 288.15 K | 293.15 K | 298.15 K | 303.15 K | 308.15 K | 313.15 K | 318.15 K
x1 = 0.0713 | 895.16 | 889.77 | 884.38 | 878.99 | 873.6 | 868.22 | 862.84
x1 = 0.1403 | 905.71 | 900.28 | 894.85 | 889.42 | 883.99 | 878.58 | 873.17
x1 = 0.2123 | 916.74 | 911.28 | 905.82 | 900.36 | 894.9 | 889.45 | 884
x1 = 0.2809 | 927.28 | 921.79 | 916.3 | 910.81 | 905.32 | 899.84 | 894.36
x1 = 0.3528 | 938.34 | 932.82 | 927.31 | 921.8 | 916.28 | 910.77 | 905.26
x1 = 0.4195 | 948.63 | 943.09 | 937.55 | 932.01 | 926.47 | 920.94 | 915.41
x1 = 0.5037 | 961.65 | 956.08 | 950.51 | 944.94 | 939.38 | 933.82 | 928.26
x1 = 0.58 | 973.48 | 967.89 | 962.3 | 956.71 | 951.12 | 945.54 | 939.96
x1 = 0.6504 | 984.43 | 978.82 | 973.21 | 967.6 | 962 | 956.4 | 950.8
x1 = 0.7197 | 995.23 | 989.61 | 983.99 | 978.37 | 972.75 | 967.13 | 961.52
x1 = 0.7822 | 1005 | 999.37 | 993.74 | 988.11 | 982.48 | 976.85 | 971.23
x1 = 0.8561 | 1016.58 | 1010.94 | 1005.3 | 999.66 | 994.02 | 988.39 | 982.76
x1 = 0.9287 | 1027.99 | 1022.35 | 1016.71 | 1011.07 | 1005.43 | 999.79 | 994.15
x1 = 1 | 1039.23 | 1033.59 | 1027.95 | 1022.32 | 1016.68 | 1011.05 | 1005.42
